{"source": "patent US6472435B1", "about": "“Anti-tumor agents” (Astrazeneca AB, priority 1998, dated 2002)", "key": {"[1]": {"system": "spheroidal aggregates of EMT6 murine breast cancer cells", "test": "Test (c): growth inhibition of spheroidal aggregates of EMT6 murine breast cancer cells", "assay_type": "cell-based", "conditions": "Mus musculus, 2 hours treatment, stasis of spheroid growth over 2-3 weeks, read-out: stasis ED50", "experimental": "(c) An in vitro assay which determines the ability of a test compound to inhibit the growth in an oxygenated culture medium of spheroidal aggregates (˜400 microns in diameter) of EMT6 murine breast cancer cells. As the oxygen diffusion distance through tissue is approximately 120-150 microns, such spheroids have a chronically hypoxic central population of cells and a well oxygenated outer layer of cells. The multicellular spheroids were treated with test compounds for 2 hours as a well oxygenated suspension culture. The spheroids were subsequently washed free of test compound and selected spheroids were transferred to static culture so that the effect of treatment on volume growth could be measured. […]\nEMT6 murine breast cells (obtained from P. R. Twentyman, MRC Oncology and Radiotherapeutics Unit, Cambridge, UK) were harvested from exponentially growing monolayer cultures and approximately 1×10^6 cells were used to inoculate a 500 ml spinner culture vessel containing Eagles minimal essential medium (200 ml; supplemented with 10% foetal calf serum, glutamate, non-essential amino acids, penicillin and streptomycin). […] The area of each spheroid was measured using an image analyser and the 24-well plates were transferred to a CO2 incubator at 37° C. The spheroids were then re-measured every 2-3 days for up to 21 days, with fresh culture medium (250 μl) being added to each well every 3 days. […]"}, "[2]": {"system": "T18 murine breast tumours", "test": "Test (d): in vivo growth delay of T18 murine breast tumours in Balb/c mice", "conditions": "single bolus dose of 20 mg/kg intraperitoneally", "description": "(d) An in vivo assay in a group of Balb/c mice which determines the ability of a test compound to delay the growth of T18 murine breast tumours. The detailed methodology was as follows:\nT18 murine breast tumour tissue was routinely maintained by animal to animal passage. To prepare a batch of tumours for an experiment, tumour tissue was removed from several donor Balb/c mice and placed in saline. Outer tissue was removed and healthy looking regions of tumour were cut into approximately 1 mm^3 pieces and implanted subcutaneously by trocar into the left flanks of anaesthetised female Balb/c mice. After 2-3 weeks, most of the implants had grown to approximately 8 mm in diameter. The animals were placed randomly into groups of 6-7, rejecting any with very large, or small, tumours. Each test compound was dissolved in DMSO and diluted with Cremophor EL followed by saline, to give a 1:1:3 mixture of DMSO, Cremophor EL and saline. Each test compound was administered by the intraperitoneal route as a single bolus dose (0.1 ml per 10 g body weight of each animal). Control animals received vehicle alone. All mice were weighed daily and the dimensions (length and width) of each tumour were measured every 2-3 days using vernier calipers. […] Growth curves were constructed and the effect of treatment was assessed using a growth delay endpoint."}}, "data": [{"smiles": "CCCC1=C(C(C)(C)CC(=O)N(C)c2ccc(N(CCCl)CCCl)cc2)C(=O)C=C(C)C1=O", "note": "[Example 1, N-{4-[bis(2-chloroethyl)amino]phenyl}-3-(5-methyl-3-propyl-1,4-benzoquinon-2-yl)-3-methyl-N-methylbutyramide]", "values": [{"measurement": "EC50", "setting": "[1]", "value": "~4", "unit": "µM"}, {"measurement": "growth delay", "setting": "[2]", "value": "approximately 9 days"}]}]}
